Laboratory results taken from ChEMBL document CHEMBL1127396, “Adenosine deaminase inhibitors. Synthesis and biological evaluation of putative metabolites of (+)-erythro-9-(2S-hydroxy-3R-nonyl)adenine” (J Med Chem, 1994).

Biological target: T1, Adenosine deaminase (Bos taurus, UniProt P56658)
T1 sequence (P56658 whole entry): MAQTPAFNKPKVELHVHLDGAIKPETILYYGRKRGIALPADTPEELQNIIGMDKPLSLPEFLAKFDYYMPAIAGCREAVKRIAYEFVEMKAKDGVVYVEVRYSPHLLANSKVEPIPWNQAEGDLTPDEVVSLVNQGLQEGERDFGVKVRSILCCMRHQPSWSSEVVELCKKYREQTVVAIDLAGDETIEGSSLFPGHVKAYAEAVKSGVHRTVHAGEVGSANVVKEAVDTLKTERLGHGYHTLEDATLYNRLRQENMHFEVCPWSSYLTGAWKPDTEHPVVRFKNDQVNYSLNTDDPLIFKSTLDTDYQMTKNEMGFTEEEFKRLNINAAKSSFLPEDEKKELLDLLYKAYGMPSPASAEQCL
Test: Tested for binding affinity against calf intestinal Adenosine Deaminase (ADA)

For `CCCCCC[C@H]([C@H](C)O)n1c(O)nc2c(N)ncnc21`, the Ki was 6.4 nM.

`CCCCCC[C@H]([C@H](C)O)[N+]1([O-])C=Nc2c(N)ncnc21` (some centres undefined) showed a Ki of 3.8 nM.

In the case of `CCCCCC[C@H]([C@H](C)O)[N+]1([O-])C(=O)Nc2c(N)ncnc21` (some centres undefined), the Ki is reported as 15.8 nM.

`CCCCCC[C@H]([C@H](C)O)n1cnc2c(N)ncnc21` [(+)-EHNA] was tested, and the Ki was 0.82 nM.
